Reference: ChEMBL document CHEMBL5291721, “A preclinical secondary pharmacology resource illuminates target-adverse drug reaction associations of marketed drugs” (Nat Commun, 2023)

Tests used:
[1] = molecular target: T1, Alpha-1A adrenergic receptor (Homo sapiens, UniProt P35348); type: functional, cell-based
T1 sequence (P35348 whole entry): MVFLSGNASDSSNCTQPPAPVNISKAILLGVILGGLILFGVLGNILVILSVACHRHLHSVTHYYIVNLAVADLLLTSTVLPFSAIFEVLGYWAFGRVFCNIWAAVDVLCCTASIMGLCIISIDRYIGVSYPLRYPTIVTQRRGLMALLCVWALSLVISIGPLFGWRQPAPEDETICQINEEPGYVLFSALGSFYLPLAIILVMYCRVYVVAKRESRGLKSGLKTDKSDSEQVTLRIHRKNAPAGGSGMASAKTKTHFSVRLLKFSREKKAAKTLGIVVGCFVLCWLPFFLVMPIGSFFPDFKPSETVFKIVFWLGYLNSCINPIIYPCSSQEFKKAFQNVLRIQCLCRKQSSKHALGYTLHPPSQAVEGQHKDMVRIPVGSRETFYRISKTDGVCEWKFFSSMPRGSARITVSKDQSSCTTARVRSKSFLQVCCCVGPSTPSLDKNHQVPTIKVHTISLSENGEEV

[2] = molecular target: T2, Gastrin/cholecystokinin type B receptor (Homo sapiens, UniProt P32239)
T2 sequence (P32239 whole entry): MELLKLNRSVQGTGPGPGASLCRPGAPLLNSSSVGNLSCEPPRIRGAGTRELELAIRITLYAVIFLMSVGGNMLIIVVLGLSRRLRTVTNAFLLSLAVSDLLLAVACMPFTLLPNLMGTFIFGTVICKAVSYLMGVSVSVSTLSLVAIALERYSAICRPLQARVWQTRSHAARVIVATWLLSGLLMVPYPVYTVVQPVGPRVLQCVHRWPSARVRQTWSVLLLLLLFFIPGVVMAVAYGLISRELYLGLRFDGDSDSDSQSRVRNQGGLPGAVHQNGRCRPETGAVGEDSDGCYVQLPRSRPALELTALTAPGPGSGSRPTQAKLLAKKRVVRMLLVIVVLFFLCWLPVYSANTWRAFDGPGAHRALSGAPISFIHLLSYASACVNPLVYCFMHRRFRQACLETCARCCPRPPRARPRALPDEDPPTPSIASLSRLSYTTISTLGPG

Cannabinoid receptor 1 = Cannabinoid receptor 1 (Homo sapiens, UniProt P21554); type: functional, cell-based
Endothelin-1 receptor = molecular target: T3, Endothelin-1 receptor (Homo sapiens, UniProt P25101)
T3 sequence (P25101 whole entry): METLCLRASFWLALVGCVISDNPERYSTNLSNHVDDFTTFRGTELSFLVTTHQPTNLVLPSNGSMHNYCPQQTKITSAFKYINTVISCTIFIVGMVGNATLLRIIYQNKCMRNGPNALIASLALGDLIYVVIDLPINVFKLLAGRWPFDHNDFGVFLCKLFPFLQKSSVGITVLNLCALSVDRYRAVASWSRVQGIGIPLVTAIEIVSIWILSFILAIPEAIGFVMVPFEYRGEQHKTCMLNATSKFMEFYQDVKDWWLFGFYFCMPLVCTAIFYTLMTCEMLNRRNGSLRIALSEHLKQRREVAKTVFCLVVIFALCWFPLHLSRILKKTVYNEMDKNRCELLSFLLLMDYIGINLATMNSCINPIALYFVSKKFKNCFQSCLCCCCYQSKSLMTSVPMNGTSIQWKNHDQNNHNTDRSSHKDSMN

[3] = molecular target: T4, Gastric inhibitory polypeptide receptor (Homo sapiens, UniProt P48546)
T4 sequence (P48546 whole entry): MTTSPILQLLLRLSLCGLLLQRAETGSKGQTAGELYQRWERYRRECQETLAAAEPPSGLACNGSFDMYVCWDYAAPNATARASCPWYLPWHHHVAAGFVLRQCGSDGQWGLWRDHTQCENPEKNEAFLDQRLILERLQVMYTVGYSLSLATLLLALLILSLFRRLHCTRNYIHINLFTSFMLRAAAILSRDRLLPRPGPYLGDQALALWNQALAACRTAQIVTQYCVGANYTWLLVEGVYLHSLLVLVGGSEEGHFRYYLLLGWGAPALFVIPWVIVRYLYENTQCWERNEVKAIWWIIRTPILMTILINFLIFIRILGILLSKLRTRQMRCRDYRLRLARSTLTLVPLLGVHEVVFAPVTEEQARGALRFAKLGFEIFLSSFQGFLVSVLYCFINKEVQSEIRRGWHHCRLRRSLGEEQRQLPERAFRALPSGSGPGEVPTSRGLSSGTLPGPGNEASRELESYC

[4] = molecular target: T5, 5-hydroxytryptamine receptor 1A (Homo sapiens, UniProt P08908); type: functional, cell-based
T5 sequence (P08908 whole entry): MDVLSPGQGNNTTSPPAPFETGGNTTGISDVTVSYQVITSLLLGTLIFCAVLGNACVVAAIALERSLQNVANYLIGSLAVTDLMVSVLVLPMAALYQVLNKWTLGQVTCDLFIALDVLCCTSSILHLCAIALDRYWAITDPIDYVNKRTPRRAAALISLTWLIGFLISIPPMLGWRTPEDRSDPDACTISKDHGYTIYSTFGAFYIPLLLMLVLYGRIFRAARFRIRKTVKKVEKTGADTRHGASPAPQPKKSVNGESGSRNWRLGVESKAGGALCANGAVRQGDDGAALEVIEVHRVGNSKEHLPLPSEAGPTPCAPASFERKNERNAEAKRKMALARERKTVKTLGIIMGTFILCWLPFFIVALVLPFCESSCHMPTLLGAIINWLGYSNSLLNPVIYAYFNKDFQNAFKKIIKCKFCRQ

[5] = molecular target: T5, 5-hydroxytryptamine receptor 1A
[6] = molecular target: Sodium-dependent dopamine transporter (Homo sapiens, UniProt Q01959)
Thromboxane A2 receptor = molecular target: T6, Thromboxane A2 receptor (Homo sapiens, UniProt P21731); type: functional, cell-based
T6 sequence (P21731 whole entry): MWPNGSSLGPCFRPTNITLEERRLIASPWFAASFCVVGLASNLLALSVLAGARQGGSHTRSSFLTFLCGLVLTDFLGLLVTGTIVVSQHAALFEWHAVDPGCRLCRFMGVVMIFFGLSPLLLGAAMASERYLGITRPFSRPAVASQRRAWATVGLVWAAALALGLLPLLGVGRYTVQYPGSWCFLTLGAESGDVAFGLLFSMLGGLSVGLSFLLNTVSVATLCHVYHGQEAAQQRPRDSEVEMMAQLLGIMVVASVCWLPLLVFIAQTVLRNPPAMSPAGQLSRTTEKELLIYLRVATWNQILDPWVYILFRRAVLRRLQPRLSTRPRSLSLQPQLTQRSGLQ

[7] = molecular target: 5-hydroxytryptamine receptor 2A (Homo sapiens, UniProt P28223); type: functional, cell-based
Also: assay procedure not described here.

Chain of Cannabinoid receptor 1 (P21554 whole entry): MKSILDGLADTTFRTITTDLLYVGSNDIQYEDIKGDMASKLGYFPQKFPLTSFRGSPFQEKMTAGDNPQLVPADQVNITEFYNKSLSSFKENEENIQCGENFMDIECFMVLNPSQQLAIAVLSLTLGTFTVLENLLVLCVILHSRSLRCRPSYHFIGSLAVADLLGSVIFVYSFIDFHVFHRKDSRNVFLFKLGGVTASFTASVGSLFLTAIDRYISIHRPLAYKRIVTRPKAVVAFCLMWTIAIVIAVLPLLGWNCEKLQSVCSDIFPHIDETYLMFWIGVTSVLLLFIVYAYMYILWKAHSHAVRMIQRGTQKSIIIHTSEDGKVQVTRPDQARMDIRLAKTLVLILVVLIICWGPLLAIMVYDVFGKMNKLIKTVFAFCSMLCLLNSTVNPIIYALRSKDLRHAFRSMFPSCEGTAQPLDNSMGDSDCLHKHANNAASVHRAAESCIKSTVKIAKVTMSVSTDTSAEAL
Chain of Sodium-dependent dopamine transporter (Q01959 whole entry): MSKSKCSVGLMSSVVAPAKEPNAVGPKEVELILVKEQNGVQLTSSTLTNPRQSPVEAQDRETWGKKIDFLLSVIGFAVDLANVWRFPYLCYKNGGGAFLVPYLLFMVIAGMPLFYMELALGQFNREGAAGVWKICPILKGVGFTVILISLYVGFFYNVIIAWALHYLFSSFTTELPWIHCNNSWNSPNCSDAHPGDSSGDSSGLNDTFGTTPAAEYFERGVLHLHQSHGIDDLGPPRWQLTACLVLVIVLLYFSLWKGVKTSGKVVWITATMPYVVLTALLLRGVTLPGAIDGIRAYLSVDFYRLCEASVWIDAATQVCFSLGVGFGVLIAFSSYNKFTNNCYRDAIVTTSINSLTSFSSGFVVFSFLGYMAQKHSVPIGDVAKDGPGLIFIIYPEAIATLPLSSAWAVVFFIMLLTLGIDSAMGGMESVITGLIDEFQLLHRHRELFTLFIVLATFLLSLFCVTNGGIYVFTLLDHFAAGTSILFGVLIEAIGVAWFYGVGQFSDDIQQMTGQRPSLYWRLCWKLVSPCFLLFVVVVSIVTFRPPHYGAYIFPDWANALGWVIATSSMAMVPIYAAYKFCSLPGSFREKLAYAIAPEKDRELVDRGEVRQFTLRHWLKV
Chain of 5-hydroxytryptamine receptor 2A (P28223 whole entry): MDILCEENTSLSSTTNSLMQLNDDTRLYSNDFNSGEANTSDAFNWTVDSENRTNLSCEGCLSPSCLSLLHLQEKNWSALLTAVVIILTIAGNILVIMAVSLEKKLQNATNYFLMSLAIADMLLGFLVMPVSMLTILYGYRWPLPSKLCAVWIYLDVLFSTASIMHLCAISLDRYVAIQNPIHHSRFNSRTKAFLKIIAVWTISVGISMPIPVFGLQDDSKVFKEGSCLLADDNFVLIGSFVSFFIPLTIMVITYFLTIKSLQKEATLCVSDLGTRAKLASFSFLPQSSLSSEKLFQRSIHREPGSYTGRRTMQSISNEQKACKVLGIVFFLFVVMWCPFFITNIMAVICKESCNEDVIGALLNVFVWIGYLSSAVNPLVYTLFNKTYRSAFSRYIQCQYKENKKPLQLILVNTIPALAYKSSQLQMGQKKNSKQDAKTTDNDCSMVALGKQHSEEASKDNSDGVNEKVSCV

Row | Compound | AC50 [1] [µM] | AC50 [2] [µM] | AC50 (Cannabinoid receptor 1) [µM] | AC50 (Endothelin-1 receptor) [µM] | AC50 [3] [µM] | AC50 [4] [µM] | AC50 [5] [µM] | AC50 [6] [µM] | AC50 (Thromboxane A2 receptor) [µM] | AC50 [7] [µM]
1 | CC[C@H]1OC(=O)[C@H](C)[C@@H](O[C@H]2C[C@@](C)(OC)[C@@H](O)[C@H](C)O2)[C@H](C)[C@@H](O[C@@H]2O[C@H](C)C[C@H](N(C)C)[C@H]2O)[C@](C)(O)C[C@@H](C)CN(C)[C@H](C)[C@@H](O)[C@]1(C)O [AZITHROMYCIN] | > 30 | > 30 | > 30 | > 30 | > 30 | > 10 | > 30 | > 30 | > 30 | 
2 | NCC(CC(=O)O)c1ccc(Cl)cc1 (stereo not given) [BACLOFEN] | > 30 | > 30 | > 30 | > 30 | > 30 | > 30 | > 30 | > 30 | > 30 | 
3 | CC(C)C[C@H]1C(=O)N2CCC[C@H]2[C@]2(O)O[C@](NC(=O)[C@@H]3C=C4c5cccc6[nH]c(Br)c(c56)C[C@H]4N(C)C3)(C(C)C)C(=O)N12 [BROMOCRIPTINE] | 0.844 | > 30 | > 30 | > 30 | > 30 | 0.17 | 0.003 | > 30 | > 3 | 
4 | CC1=C(C(=O)O)N2C(=O)[C@@H](NC(=O)[C@H](N)c3ccccc3)[C@H]2SC1 [CEPHALEXIN ANHYDROUS] | > 30 | > 30 | > 30 | > 30 | > 30 | > 10 |  |  |  | 
5 | CN(C)CCC(c1ccc(Cl)cc1)c1ccccn1 (stereo not given) [CHLORPHENIRAMINE] | > 30 | > 30 | > 30 | > 30 | > 30 | > 10 |  |  |  | 
6 | C[C@]12CCC(=O)C=C1CC[C@@H]1[C@@H]2[C@@H](O)C[C@@]2(C)[C@H]1CC[C@]2(O)C(=O)CO [HYDROCORTISONE] | > 30 | > 30 | > 30 | > 30 | > 30 | > 10 |  |  |  | 
7 | CCC(C)n1ncn(-c2ccc(N3CCN(c4ccc(OCC5COC(Cn6cncn6)(c6ccc(Cl)cc6Cl)O5)cc4)CC3)cc2)c1=O (stereo not given) [ITRACONAZOLE] | > 30 | > 30 | > 30 | > 30 | > 30 | > 30 |  |  |  | 
8 | Cc1c(C(=O)NN2CCCCC2)nn(-c2ccc(Cl)cc2Cl)c1-c1ccc(Cl)cc1 [RIMONABANT] | > 30 | 29.6 |  | > 30 | > 30 | > 30 |  |  |  | 3.7
9 | CS(=O)(=O)c1ccc(C2=C(c3ccccc3)C(=O)OC2)cc1 [ROFECOXIB] | > 30 | > 30 | > 30 | > 30 | > 30 | 35 | > 30 | > 30 | > 30 | 
10 | CO[C@H]1C[C@@H]2CC[C@@H](C)[C@@](O)(O2)C(=O)C(=O)N2CCCC[C@H]2C(=O)O[C@H]([C@H](C)C[C@@H]2CC[C@@H](O)[C@H](OC)C2)CC(=O)[C@H](C)/C=C(\C)[C@@H](O)[C@@H](OC)C(=O)[C@H](C)C[C@H](C)/C=C/C=C/C=C/1C [SIROLIMUS] | > 30 | > 30 | > 30 | > 30 | > 30 | > 10 | > 30 | > 30 | > 30 | 
11 | Cc1cn([C@H]2C=C[C@@H](CO)O2)c(=O)[nH]c1=O [STAVUDINE] | > 30 | > 30 | > 30 | > 30 | > 30 | > 10 | > 30 | > 30 | > 30 | 
12 | Cn1nnc2c(C(N)=O)ncn2c1=O [TEMOZOLOMIDE] | > 30 | > 30 | > 30 | > 30 | > 30 | > 30 |  |  |  | > 30
13 | Cc1cn([C@H]2C[C@H](N=[N+]=[N-])[C@@H](CO)O2)c(=O)[nH]c1=O [ZIDOVUDINE] | > 30 | > 30 | > 30 | > 30 | > 30 | > 10 | > 30 | > 30 | > 30 | 
